Data on eight molecules can be found in US7625894B2, “Pyrrolo[2,3-d]Pyrimidines as Protein Tyrosine Kinase Inhibitors” (Novartis AG, priority 2004, dated 2009).

In general, melting point refers to the temperature, or range, at which the solid turns liquid. `CCCN(C)c1ncnc2[nH]c(-c3ccc(CN4CCN(C)CC4)cc3)cc12` [Example 1, methyl-{6-[4-(4-methyl-piperazin-1-ylmethyl)phenyl]-7H-pyrrolo[2,3-d]pyrimidin-4-yl}-propylamine]: the melting point was in the range of 220 to 221 °C. Molecule `CN1CCN(C(=O)c2ccc(-c3cc4c(N5CCN(C)CC5)ncnc4[nH]3)cc2)CC1` [Example 8, (4-Methyl-piperazin-1-yl)-{4-[4-(4-methyl-piperazin-1-yl)-7H-pyrrolo[2,3-d]pyrimidin-6-yl]-phenyl}-methanone] had a melting point of 243 to 245 °C. The figure for `CNC(=O)c1ccc(-c2cc3c(NC)ncnc3[nH]2)cc1` [Example 21, N-Methyl-4-(4-methylamino-7H-pyrrolo[2,3-d]pyrimidin-6-yl)-benzamide] is greater than 300 °C. `CN(C)CCNc1ncnc2[nH]c(-c3ccc(C(=O)N4CCN(C)CC4)cc3)cc12` [Example 22, {4-[4-(2-Dimethylamino-ethylamino)-7H-pyrrolo[2,3-d]pyrimidin-6-yl]-phenyl}-(4-methyl-piperazin-1-yl)-methanone] yielded a melting point of 268 to 270 °C.

Molecule `CCCCOCc1ccc(-c2cc3c(N(C)C)ncnc3[nH]2)cc1` [Example 26, [6-(4-Butoxymethyl-phenyl)-7H-pyrrolo[2,3-d]pyrimidin-4-yl]-dimethyl-amine] came in with a melting point of 186 to 188 °C.

On to `CCC(O)(CC)c1ccc(-c2cc3c(NCCCN4CCOCC4)ncnc3[nH]2)cc1` [Example 30], for which the melting point lay in the range of 175 to 177 °C. The molecule `COCCN(CCOC)c1ncnc2[nH]c(-c3ccc(C(C)(C)O)cc3)cc12` [Example 31, 2-(4-{4-[Bis-(2-methoxy-ethyl)-amino]-7H-pyrrolo[2,3-d]pyrimidin-6-yl}-phenyl)-propan-2-ol] registered a melting point of 165 to 167 °C.

`CCC(O)(CC)c1ccc(-c2cc3c(N(CCOC)CCOC)ncnc3[nH]2)cc1` [Example 32, 3-(4-{4-[Bis-(2-methoxy-ethyl)-amino]-7H-pyrrolo[2,3-d]pyrimidin-6-yl}-phenyl)-pentan-3-ol] came in with a melting point of 83 to 85 °C.
